≈ marks a conversion by molar mass, not a printed value. Where two headings read alike, the source gives them in different places. Marks after values point to notes of the source that are not given here.
Tests used:
[1] = tested on: wild-type (wt) M. tuberculosis strain; test: microbe, parasite or virus in culture; type: cell-based, Mycobacterium tuberculosis; settings: for MIC: Mycobacterium tuberculosis
[2] = tested on: M. tuberculosis strain SPAM13C (LepB-UE); test: microbe, parasite or virus in culture; type: cell-based, Mycobacterium tuberculosis; settings: for MIC: Mycobacterium tuberculosis; for Change in potency against LepB-UE compared to compound 1: decrease in potency relative to compound 1
in vitro = type: cell-based, African green monkey; settings: African green monkey
Protocol: Cytotoxicity against African green monkey adult kidney cell (Vero cells) was determined as previously described using CellTiter-Glo reagent.[44] The concentration causing 50% growth inhibition (IC50) was calculated by fitting the inhibition curves using the Levenberg–Marquardt algorithm.

LepB = biological target: T1, LepB (Mycobacterium tuberculosis, UniProt P9WKA1); test: LepB membrane assay (fluorogenic signal peptide cleavage by cell membrane fraction); type: biochemical; settings: M. tuberculosis H37Rv cell membrane fraction, 2 μM peptide substrate, 4 h at 37 °C
T1 construct: we used purified membrane fractions to develop an in vitro assay for signal peptide cleavage; host or cells: γ-irradiated whole M. tuberculosis H37Rv; Triton X-114 membrane fraction
T1 sequence (P9WKA1 1-294): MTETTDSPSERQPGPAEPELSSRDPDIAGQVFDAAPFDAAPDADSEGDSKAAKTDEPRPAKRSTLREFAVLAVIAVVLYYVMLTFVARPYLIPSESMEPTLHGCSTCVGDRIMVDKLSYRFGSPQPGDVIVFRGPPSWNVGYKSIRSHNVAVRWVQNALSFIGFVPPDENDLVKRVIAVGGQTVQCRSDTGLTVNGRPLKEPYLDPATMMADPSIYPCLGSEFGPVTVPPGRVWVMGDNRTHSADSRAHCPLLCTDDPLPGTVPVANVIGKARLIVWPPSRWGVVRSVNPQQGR

[3] = 120 h, […], OD590 after 5 days at 37 °C, average ± SD of at least two experiments, b = single value, read-out: WT MIC
[4] = […], OD590 after 5 days at 37 °C, average ± SD of at least two experiments, b = single value
[5] = M. tuberculosis strain SPAM13C, OD590 after 5 days at 37 °C, average ± SD of at least two experiments, b = single value
[6] = 120 h, M. tuberculosis strain SPAM13C, OD590 after 5 days at 37 °C, average ± SD of at least two experiments, b = single value, read-out: LepB-UE MIC

Compound | MIC [1, 3] [µM] | MIC [2, 6] [µM] | CC50 (in vitro) [µM] | IC50 (LepB) [µM] | other results
Cc1cc(C)nc(NNC(=O)c2ccccn2)n1 [Compound 57] | 25 (≈ 6.08 µg/mL) | 3.5 to 15 (≈ 0.851 to 3.65 µg/mL) | 32 | 64 | WT MIC [1, 4]: 25 ± 4 µM; LepB-UE MIC [2, 5]: 3.9 ± 1.3 µM; Change in potency against LepB-UE compared to compound 1 [2]: activity similar to that of 1
Cc1nc2ccccc2nc1N/N=C/c1c(O)ccc2ccccc12 [Compound 7] | 14 ± 3 (≈ 4.6 µg/mL) | 3.9 ± 1.7 (≈ 1.28 µg/mL) | 5.2 | 130 | 
C/C(=N\NC(=O)C1CC1)c1ccccn1 [Compound 40] | 42 ± 15 (≈ 8.54 µg/mL) |  | 75 | > 200 | LepB-UE MIC [2, 5]: 15 ± 1 µM
C/C(=N\NS(=O)(=O)c1ccccc1)c1ccccn1 [Compound 42] | 94 (≈ 25.9 µg/mL) | 48 (≈ 13.2 µg/mL) | > 100 | 34 | Change in potency against LepB-UE compared to compound 1 [2]: 16 fold
COc1ccc(Nc2nc(NCc3ccco3)nc(N/N=C/c3ccccc3O)n2)cc1 [Compound 10] | > 200 | 5.4 ± 2.6 (≈ 2.33 µg/mL) | 4.3 | > 200 | 
Cc1ccc2cc(C)c(N/N=C/c3cc(Br)ccc3O)nc2c1 [Compound 5] | > 200 | 7.4 ± 3.4 (≈ 2.74 µg/mL) | 5 | > 200 | 
Cc1cnn(-c2cc(N/N=C/c3ccccc3O)ncn2)c1 [Compound 4] | 10 ± 7 (≈ 2.94 µg/mL) | 4.5 ± 2.5 (≈ 1.32 µg/mL) | 9.2 | > 200 | 
C/C(=N\Nc1nnc2c(n1)[nH]c1ccc(C)cc12)c1ccccn1 [Compound 28] | > 200 | 4.8 ± 2.4 (≈ 1.52 µg/mL) | 1.2 | 87 | Change in potency against LepB-UE compared to compound 1 [2]: activity was comparable to that of 1
C/C(=N\Nc1nc(C)cc(C)n1)c1ccccc1O [Compound 24] | 40 ± 8 (≈ 10.3 µg/mL) | 30 to 90 (≈ 7.69 to 23.1 µg/mL) | 67 |  | LepB-UE MIC [2, 5]: 30 ± 3 µM; Change in potency against LepB-UE compared to compound 1 [2]: at least 10 fold
C/C(=N\NC(=O)c1ccoc1C)c1ccccn1 [Compound 39] | < 10 | 2 to 2.5 (≈ 0.487 to 0.608 µg/mL) | 3.3 | > 200 | WT MIC [1, 4]: 5.5 ± 1.4 µM; LepB-UE MIC [2, 5]: 2.5 ± 0.2 µM
Cc1cc(C)nc(-n2nc(C)c3c2NC(=O)CC3c2ccccc2)n1 (centres unmarked) [Compound 50] | > 200 | > 200 | 66 |  | 
Cc1nc2ccccc2nc1N/N=C/c1ccc(O)c(C)c1O [Compound 6] | 26 ± 12 (≈ 8.02 µg/mL) | 3.8 ± 1.3 (≈ 1.17 µg/mL) | 8.7 | > 200 | 
Cc1ccc(-c2cc(C(=O)N/N=C/c3ccccn3)[nH]n2)cc1 [Compound 15] | > 200 |  | 63 | > 200 | LepB-UE MIC [2, 5]: 15 ± 2.5 µM
C/C(=N\NC(=O)c1ccncc1)c1ccccn1 [Compound 31] | 4.7 ± 0.3 (≈ 1.13 µg/mL) | 3.5 to 15 (≈ 0.841 to 3.6 µg/mL) | 10 |  | LepB-UE MIC [2, 5]: 3.6 ± 0.7 µM; Change in potency against LepB-UE compared to compound 1 [2]: activity was comparable to that of 1
C/C(=N\Nc1nc(C)cc(C)n1)c1ccccc1 [Compound 22] | > 200 |  | > 100 | > 200 | Change in potency against LepB-UE compared to compound 1 [2]: at least 10 fold
C/C(=N\NC(=S)Nc1cccc(C)c1)c1ccccc1O [Compound 18] | 18 ± 12 (≈ 5.39 µg/mL) | 9 ± 5.8 (≈ 2.69 µg/mL) | 11 |  | 
Cc1cc(C)nc(-n2nc(C)c(Oc3ccccc3O)c2C)n1 [Compound 44] | > 200 | 95 ± 7 (≈ 29.5 µg/mL) | > 100 | > 200 | 
CSC(=S)N/N=C(\c1ccccc1)c1ccccn1 [Compound 19] | 10 ± 3 (≈ 2.87 µg/mL) | 6 ± 4.2 (≈ 1.72 µg/mL) | 2.4 |  | 
C/C(=N\Nc1ccccn1)c1ccccn1 [Compound 29] | > 200 | 130 (≈ 27.6 µg/mL) | > 100 |  | Change in potency against LepB-UE compared to compound 1 [2]: 42 fold

Compound | MIC [1, 3] [µM] | MIC [2, 6] [µM] | CC50 (in vitro) [µM] | IC50 (LepB) [µM] | other results
OCc1ccccc1-n1ccc(-c2cccnc2)n1 [Compound 55] | > 200 | > 200 | > 100 |  | 
Cc1ccc(C(N)=O)cc1-n1ccc(-c2cccnc2)n1 [Compound 53] | > 200 | > 200 | > 100 |  | 
Cc1ccn(-c2ccc(C(=O)O)cc2)n1 [Compound 52] | > 200 | > 200 | > 100 |  | 
CN(Cc1ccn(C)n1)C(=O)c1ccn(-c2ccc([N+](=O)[O-])cc2)n1 [Compound 51] | > 200 | > 200 | > 100 |  | 
C/C(=N\NC(N)=S)c1ccccn1 [Compound 41] | 4 (≈ 0.777 µg/mL) | 3.6 (≈ 0.699 µg/mL) | 22 |  | Differential activity (difference in MIC, wt versus LepB-UE) [2]: equally potent toward both wt and LepB-UE; Change in potency against LepB-UE compared to compound 1 [2]: comparable to that of 1
CO[C@H]1/C=C/O[C@@]2(C)Oc3c(C)c(O)c4c(O)c(c(/C=N/N5CCN(C)CC5)c(O)c4c3C2=O)NC(=O)/C(C)=C\C=C\[C@H](C)[C@H](O)[C@@H](C)[C@@H](O)[C@@H](C)[C@H](OC(C)=O)[C@@H]1C [rifampicin, reference compound] |  |  |  |  | MIC ([1]; read-out: MIC against wt): 0.0077 ± 0.0023 µM (≈ 0.00634 µg/mL); MIC ([2]; rifampicin, LepB-UE strain, read-out: MIC against LepB-UE): 0.0054 ± 0.0009 µM (≈ 0.00444 µg/mL)
CC(C)=NNc1nc(C)cc(C)n1 [Compound 25] | > 200 | > 200 | > 100 |  | 
C/C(=N\NC(=O)c1cc(Br)ccc1O)c1ccccn1 [Compound 37] | 4.2 ± 2.6 (≈ 1.4 µg/mL) | 2 to 2.5 (≈ 0.668 to 0.835 µg/mL) | 5.4 |  | LepB-UE MIC [2, 5]: 2.0 ± 0.5 µM
Cc1cc(C)nc(-n2nc(C)c3c2CC(c2cccs2)CC3=O)n1 (centres unmarked) [Compound 49] | > 200 | > 200 |  |  | 
C/C(=N\Nc1nc(C)cc(C)n1)c1cccnc1 [Compound 26] | > 200 | > 200 |  |  | 
N=C(N/N=C/c1ccccc1O)c1ccccn1 [Compound 17] |  | 6.7 ± 1.6 (≈ 1.61 µg/mL) | > 100 |  | Increase in potency against wt compared to 16 ([1]; relative to compound 16): ~4 fold
CC1=NN(c2nc(C)cc(C)n2)C(=O)C1Cc1ccccc1 (centres unmarked) [Compound 45] | 68 ± 12 (≈ 20 µg/mL) | 56 ± 3 (≈ 16.5 µg/mL) | > 100 |  | 
C/C(=N\NC(=O)c1ccc(Br)o1)c1ccccn1 [Compound 35] | 5.3 ± 3.3 (≈ 1.63 µg/mL) |  | 0.6 |  | LepB-UE MIC [2, 5]: 8.2^b μM
CC(O)c1nc2cc(-n3ccc(-c4cnccn4)n3)ccc2[nH]1 (centres unmarked) [Compound 54] | > 200 | > 200 | > 100 |  | 
C/C(=N\NC(=N)c1ccccn1)c1ccccn1 [Compound 30] | 47 ± 6 (≈ 11.2 µg/mL) | 7.7 ± 0.2 (≈ 1.84 µg/mL) | 59 |  | Change in potency against LepB-UE compared to compound 1 [2]: activity was comparable to that of 1
Cc1ccc(C(N)=O)cc1-n1ccc(-c2cnccn2)n1 [Compound 56] | > 200 | > 200 | > 100 |  | 
N=C(N/N=C/c1cccc(Cl)c1)c1ccccn1 [Compound 32] | 59 (≈ 15.3 µg/mL) | 41 (≈ 10.6 µg/mL) | 62 |  | 
CCOC(=O)c1c(C)nn(-c2nc(C)cc(C)n2)c1N [Compound 48] | > 200 | 44 ± 6 (≈ 12.1 µg/mL) | > 100 |  | 

Source: article PMC5215716, “A Target-Based Whole Cell Screen Approach To Identify Potential Inhibitors of Mycobacterium tuberculosis Signal Peptidase” (ACS Infectious Diseases, 2016)
